This is an account of results in patent US20250236616A1, “IMMUNOMODULATING AZALIDES” (Zoetis Services LLC, priority 2021, published 2025).

SMILES strings stand for the structures.

Holding throughout (assay type): cell-based
For one test, the system named is TNF-α. The experiment in a line: Whole bovine blood assay, LPS-induced TNF-α. The following applies: fresh whole bovine blood, LPS stimulant; top drug concentration 250 μM. Put shortly: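 Fresh heparinized bovine whole blood was preincubated with compound 4 h at 37 °C, then stimulated with LPS (final 1 μg/mL) for 18 h at 37 °C. Plasma TNF-α was quantified by MSD U-Plex chemiluminescent immunoassay, normalized to total protein (BCA), and IC50 taken for LPS-induced TNF-α inhibition.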

The test system of a further test is IL-1β. Briefly: Whole bovine blood assay, LPS-induced IL-1β (inhibition / overstimulation). As to conditions: drug concentration giving overstimulation (OS) of LPS-induced IL-1β, top concentration 250 μM. The essentials:
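Fresh heparinized bovine whole blood was preincubated with compound at varying concentrations for 4 h at 37 °C, then stimulated with 1 μg/mL LPS for 18 h. Plasma IL-1β was measured by MSD chemiluminescent immunoassay and normalized to total protein. Values cover inhibition and concentration-dependent overstimulation.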

Another test deals with IL-6. Briefly: Whole bovine blood assay, LPS-induced IL-6. The following applies: fresh whole bovine blood, LPS stimulant; top drug concentration 250 μM.

Broadly, the IC50 is the point on the concentration scale where inhibition reaches its midpoint. High values mean weaker potency in that assay, low ones greater potency in that assay. A word on the minimal effective concentration: it is the lowest level tested that produced the effect sought. For `CC[C@H]1OC(=O)[C@H](C)[C@@H](O)[C@H](C)[C@@H](O[C@@H]2O[C@H](C)C[C@H](N(C)S(=O)(=O)c3ccc(N4CCOCC4)nc3)[C@H]2Oc2ccc(F)cc2)[C@](C)(O)C[C@@H](C)CN[C@H](C)[C@@H](O)[C@]1(C)O` [Example A-21], the IC50 with TNF-α and in the test on IL-6 was 16 µM in each case. The same molecule had a minimal effective concentration with IL-1β of 16 µM.
As to `CC[C@H]1OC(=O)[C@H](C)[C@@H](O)[C@H](C)[C@@H](O[C@@H]2O[C@H](C)C[C@H](N(C)S(=O)(=O)c3cccs3)[C@H]2Oc2ccc(F)cc2)[C@](C)(O)C[C@@H](C)CN[C@H](C)[C@@H](O)[C@]1(C)O` [Example A-22], the half-maximal inhibitory concentration (IC50) with TNF-α worked out at 30 µM; in the test on IL-6, 22 µM. The molecule also came in with a minimal effective concentration in the test with IL-1β of 16 µM.
Consider `CC[C@H]1OC(=O)[C@H](C)[C@@H](O)[C@H](C)[C@@H](O[C@@H]2O[C@H](C)C[C@H](N(C)S(=O)(=O)c3ccccc3)[C@H]2Oc2ccc(F)cc2)[C@](C)(O)C[C@@H](C)CN[C@H](C)[C@@H](O)[C@]1(C)O` [Example A-23], for which the IC50 was determined as 36 µM in the test with TNF-α and 22 µM with IL-6. In the test with IL-1β, this molecule registered a minimal effective concentration of 16 µM.
As for `CC[C@H]1OC(=O)[C@H](C)[C@@H](O)[C@H](C)[C@@H](O[C@@H]2O[C@H](C)C[C@H](N(C)S(=O)(=O)c3cc4ccccc4o3)[C@H]2Oc2ccc(F)cc2)[C@](C)(O)C[C@@H](C)CN[C@H](C)[C@@H](O)[C@]1(C)O` [Example A-24], the results for the IC50 with TNF-α and in the test on IL-6 were 30 µM and 26 µM, respectively. In the test with IL-1β, this molecule registered a minimal effective concentration of 19 µM.
The corresponding values for `CC[C@H]1OC(=O)[C@H](C)[C@@H](O)[C@H](C)[C@@H](O[C@@H]2O[C@H](C)C[C@H](N(C)S(=O)(=O)c3ccc(F)cc3)[C@H]2Oc2ccc(F)cc2)[C@](C)(O)C[C@@H](C)CN[C@H](C)[C@@H](O)[C@]1(C)O` [Example A-25] are 75 µM, 28 µM and 16 µM.
The corresponding values for `CC[C@H]1OC(=O)[C@H](C)[C@@H](O)[C@H](C)[C@@H](O[C@@H]2O[C@H](C)C[C@H](N(C)S(=O)(=O)c3nccn3C)[C@H]2Oc2ccc(F)cc2)[C@](C)(O)C[C@@H](C)CN[C@H](C)[C@@H](O)[C@]1(C)O` [Example A-27] are 141 µM, 66 µM and 100 µM.
On the same counts, the results for `CC[C@H]1OC(=O)[C@H](C)[C@@H](O)[C@H](C)[C@@H](O[C@@H]2O[C@H](C)C[C@H](N(C)S(=O)(=O)c3cnc4n3CCC4)[C@H]2Oc2ccc(F)cc2)[C@](C)(O)C[C@@H](C)CN[C@H](C)[C@@H](O)[C@]1(C)O` [Example A-28] are more than 250 µM, 120 µM and 81 µM.
`CC[C@H]1OC(=O)[C@H](C)[C@@H](O)[C@H](C)[C@@H](O[C@@H]2O[C@H](C)C[C@H](N(C)S(=O)(=O)c3nccn3C)[C@H]2Oc2ccc(F)c(C(F)(F)F)c2)[C@](C)(O)C[C@@H](C)CN[C@H](C)[C@@H](O)[C@]1(C)O` [Example A-34]: the IC50 with TNF-α came to 205 µM; in the test with IL-6, 59 µM. This molecule yielded a minimal effective concentration with IL-1β of 40 µM.
The corresponding values for `CC[C@H]1OC(=O)[C@H](C)[C@@H](O[C@H]2C[C@@](C)(OC)[C@](O)(CNCCN(C)C)[C@H](C)O2)[C@H](C)[C@@H](O[C@@H]2O[C@H](C)C[C@H](N(C)S(=O)(=O)c3ccc(Cl)cc3)[C@H]2O)[C@](C)(O)C[C@@H](C)CN[C@H](C)[C@@H](O)[C@]1(C)O` [Example B-35] are more than 250 µM, 54 µM and 16 µM.
The corresponding values for `CC[C@H]1OC(=O)[C@H](C)[C@@H](O[C@H]2C[C@@](C)(OC)[C@](O)(CNC)[C@H](C)O2)[C@H](C)[C@@H](O[C@@H]2O[C@H](C)C[C@H](N(C)S(=O)(=O)c3ccc(Cl)cc3)[C@H]2O)[C@](C)(O)C[C@@H](C)CN[C@H](C)[C@@H](O)[C@]1(C)O` [Example B-38] are 32 µM, 22 µM and 5 µM.
The corresponding values for `CCCNC[C@]1(O)[C@H](C)O[C@@H](O[C@H]2[C@H](C)[C@@H](O[C@@H]3O[C@H](C)C[C@H](N(C)S(=O)(=O)N4CCc5ccccc5C4)[C@H]3O)[C@](C)(O)C[C@@H](C)CN[C@H](C)[C@@H](O)[C@](C)(O)[C@@H](CC)OC(=O)[C@@H]2C)C[C@@]1(C)OC` [Example B-42] are 13 µM, 8 µM and 2 µM.
For the molecule `CCCNC[C@]1(O)[C@H](C)O[C@@H](O[C@H]2[C@H](C)[C@@H](O[C@@H]3O[C@H](C)C[C@H](N(C)S(=O)(=O)N(C)Cc4ccccc4)[C@H]3O)[C@](C)(O)C[C@@H](C)CN[C@H](C)[C@@H](O)[C@](C)(O)[C@@H](CC)OC(=O)[C@@H]2C)C[C@@]1(C)OC` [Example B-44], the IC50 in the test with TNF-α is 13 µM; with IL-6, 9 µM. For the same molecule, the minimal effective concentration in the test on IL-1β is reported as 3 µM.
On the same counts, the results for `CCCNC[C@]1(O)[C@H](C)O[C@@H](O[C@H]2[C@H](C)[C@@H](O[C@@H]3O[C@H](C)C[C@H](N(C)S(=O)(=O)N4Cc5ccccc5C4)[C@H]3O)[C@](C)(O)C[C@@H](C)CN[C@H](C)[C@@H](O)[C@](C)(O)[C@@H](CC)OC(=O)[C@@H]2C)C[C@@]1(C)OC` [Example B-45] are 16 µM, 8 µM and 3 µM.
On the same counts, the results for `CCCNC[C@]1(O)[C@H](C)O[C@@H](O[C@H]2[C@H](C)[C@@H](O[C@@H]3O[C@H](C)C[C@H](N(C)S(=O)(=O)N4CCCCC4)[C@H]3O)[C@](C)(O)C[C@@H](C)CN[C@H](C)[C@@H](O)[C@](C)(O)[C@@H](CC)OC(=O)[C@@H]2C)C[C@@]1(C)OC` [Example B-47] are 13 µM, 24 µM and 40 µM.
As to `CC[C@H]1OC(=O)[C@H](C)[C@@H](O[C@H]2C[C@@](C)(OC)[C@](O)(Cn3ccnc3)[C@H](C)O2)[C@H](C)[C@@H](O[C@@H]2O[C@H](C)C[C@H](N(C)S(=O)(=O)c3ccc(Cl)cc3)[C@H]2O)[C@](C)(O)C[C@@H](C)CN[C@H](C)[C@@H](O)[C@]1(C)O` [Example C-5], the minimal effective concentration in the test on IL-1β was determined as 16 µM. The same molecule yielded an IC50 in the test with IL-6 of 31 µM.
In the test with IL-1β, `CC[C@H]1OC(=O)[C@H](C)[C@@H](O[C@H]2C[C@@](C)(OC)[C@](O)(CN3CCCCC3)[C@H](C)O2)[C@H](C)[C@@H](O[C@@H]2O[C@H](C)C[C@H](N(C)S(=O)(=O)Nc3ccccc3)[C@H]2O)[C@](C)(O)C[C@@H](C)CN(CC)[C@H](C)[C@@H](O)[C@]1(C)O` [Example C-20] registered a minimal effective concentration of 10 µM. Further, in the test with IL-6, the midpoint of inhibition, the IC50, lay at 24 µM.
On the same counts, the results for `CCCN([C@H]1C[C@@H](C)O[C@@H](O[C@@H]2[C@@H](C)[C@H](O[C@H]3C[C@@](C)(OC)[C@](O)(CN4CCCCC4)[C@H](C)O3)[C@@H](C)C(=O)O[C@H](CC)[C@@](C)(O)[C@H](O)[C@@H](C)NC[C@H](C)C[C@@]2(C)O)[C@@H]1O)S(=O)(=O)c1ccc(OC)cc1` [Example C-41] are more than 250 µM and 4 µM.
